Values quoted from earlier work in patent US5661161A, “Inhibitors of farnesyl-protein transferase” (Merck & Co., Inc., priority 1995, dated 1997).

System: farnesyl-protein transferase
Settings: literature; via inhibition of HMG-CoA reductase

SMILES	Indirect inhibition of farnesyl-protein transferase in vivo
CC[C@H](C)C(=O)O[C@H]1CCC=C2C=C[C@H](C)[C@H](CC[C@@H]3C[C@@H](O)CC(=O)O3)[C@H]21 [compactin]	Indirect inhibition
CC[C@H](C)C(=O)O[C@H]1C[C@@H](C)C=C2C=C[C@H](C)[C@H](CC[C@@H]3C[C@@H](O)CC(=O)O3)[C@H]21 [lovastatin]	Indirect inhibition
